Measured values from US20120045393A1 (priority 2009, published 2012).
Like-named read-outs stand apart in the source and are kept apart here. Non-standard residues stand in square brackets, D forms with d. *: point of attachment. Bpa = N[C@@H](Cc1ccc(C(=O)c2ccccc2)cc1)C(=O)O; d1Nal = N[C@H](Cc1cccc2ccccc12)C(=O)O; d2Nal = N[C@H](Cc1ccc2ccccc2c1)C(=O)O; Hyp = O=C(O)[C@@H]1C[C@@H](O)CN1; d3Pal = N[C@H](Cc1cccnc1)C(=O)O; His(1-Me) = 1-methylhistidine; DO3A10CM = not defined here; Nicotinoyl = O=C(c1cccnc1)*; Bpa4 = non-natural residue; Amfe4 = not defined here; Bzgly = not defined here; Dcfe4 = not defined here; Afe4 = not defined here; azaGly = NNC(=O)O; Sar = CNCC(=O)O; iPr = CC(C)*

B1: ^177Lu-BRU-2721 (peptide)
peptide: XHWSHXWXPX
modifications: 177Lu held by the N-terminal DO3A10CM: 177Lu-DO3A10CM-Sar-His-Trp-Ser-His-Darg-Trp-Dip-Pro-azaGly-NH2
B2: ^177Lu-BRU-2896 (peptide)
peptide: XHWSHXWXPX
modifications: 177Lu held by the N-terminal DO3A10CM: 177Lu-DO3A10CM-Adoa-Adoa-Sar-His-Trp-Ser-His-Darg-Trp-Bpa4-Pro-azaGly-NH2
B3: ^177Lu-BRU-2742 (peptide)
peptide: XHWSHXWXPX
modifications: 177Lu held by the N-terminal DO3A10CM: 177Lu-DO3A10CM-Sar-His-Trp-Ser-His-Darg-Trp-Tha-Pro-azaGly-NH2
B4: ^177Lu-BRU-2812 (peptide)
peptide: DO3A10CM-[d2Nal][Afe4]WSH[dR]W[Bpa]P[azaGly]-NH2
modifications: reading uncertain; also: 177Lu held by N-terminal DO3A10CM, printed as 177Lu-DO3A10CM-Dnal2-Afe4-Trp-Ser-His-Darg-Trp-Bpa4-Pro-azaGly-NH2
B5: ^177Lu-BRU-2696 (peptide)
peptide: XXHWSHXWXPX
modifications: 177Lu held by the N-terminal DO3A10CM: 177Lu-DO3A10CM-Gly-Abz4-Sar-His-Trp-Ser-His-Darg-Trp-Bpa4-Pro-azaGly-NH2
B6: ^177Lu-BRU-2767 (peptide)
peptide: DO3A10CM-[Sar]HWSH[dR]WP[azaGly]-NH2
modifications: reading uncertain; also: 177Lu complexed by DO3A10CM, printed as 177Lu-DO3A10CM-Sar-His-Trp-Ser-His-Darg-Trp-azaG-NH2
B7: ^177Lu-BRU-2722 (peptide)
peptide: XHWSHXWXPX
modifications: 177Lu held by the N-terminal DO3A10CM: 177Lu-DO3A10CM-Sar-His-Trp-Ser-His-Darg-Trp-F5fe-Pro-azaGly-NH2
B8: ^177Lu-BRU-2741 (peptide)
peptide: DO3A10CM-[Sar][His(1-Me)]WSH[dR]W[Bpa]P[azaGly]-NH2
modifications: reading uncertain; also: 177Lu complexed by DO3A10CM, printed as 177Lu-DO3A10CM-Sar-His(1-Me)-Trp-Ser-His-Darg-Trp-Bpa4-Pro-azaGly-NH2
B9: ^177Lu-BRU-2766 (peptide)
peptide: DO3A10CM-G[d1Nal]HWSH[dR]W[Bpa]P[azaGly]-NH2
modifications: reading uncertain; also: 177Lu complexed by DO3A10CM, printed as 177Lu-DO3A10CM-Gly-Dnal1-His-Trp-Ser-His-Darg-Trp-Bpa4-Pro-azaGly-NH2
B10: ^177Lu-BRU-2823 (peptide)
peptide: XHWSHXWXPX
modifications: 177Lu held by the N-terminal DO3A10CM: 177Lu-DO3A10CM-Sar-His-Trp-Ser-His-Darg-Trp-Thy-Pro-azaGly-NH2
B11: ^177Lu-BRU-2810 (peptide)
peptide: XHWSHXWXPX
modifications: 177Lu held by the N-terminal DO3A10CM: 177Lu-DO3A10CM-Dafe4-His-Trp-Ser-His-Darg-Trp-Bpa4-Pro-azaGly-NH2
B12: ^177Lu-BRU-2738 (peptide)
peptide: XFWSHXWXPX
modifications: 177Lu held by the N-terminal DO3A10CM: 177Lu-DO3A10CM-Sar-Phe-Trp-Ser-His-Darg-Trp-Bpa4-Pro-azaGly-NH2
B13: ^177Lu-BRU-2869 (peptide)
peptide: XHWSHXWXPX
modifications: 177Lu held by the N-terminal DO3A10CM: 177Lu-DO3A10CM-Dnal1-His-Trp-Ser-His-Darg-Trp-Bpa4-Pro-azaGly-NH2
B14: ^177Lu-BRU-2736 (peptide)
peptide: XHWSHXWXPX
modifications: 177Lu held by the N-terminal DO3A10CM: 177Lu-DO3A10CM-Meala-His-Trp-Ser-His-Darg-Trp-Bpa4-Pro-azaGly-NH2
B15: ^177Lu-BRU-2792 (peptide)
peptide: DO3A10CM-G[Bzgly]HWSH[dR]W[Bpa]P[azaGly]-NH2
modifications: reading uncertain; also: 177Lu complexed by DO3A10CM, printed as 177Lu-DO3A10CM-Gly-Bzgly-His-Trp-Ser-His-Darg-Trp-Bpa4-Pro-azaGly-NH2
B16: ^177Lu-BRU-2725 (peptide)
peptide: XHWSHXWXPX
modifications: 177Lu held by the N-terminal DO3A10CM: 177Lu-DO3A10CM-Sar-His-Trp-Ser-His-Darg-Trp-Cfe4-Pro-azaGly-NH2
B17: ^177Lu-BRU-2894 (peptide)
peptide: XHWSHXWXPX
modifications: 177Lu held by the N-terminal DO3A10CM: 177Lu-DO3A10CM-Dphe-His-Trp-Ser-His-Darg-Trp-Bpa4-Pro-azaGly-NH2

Experiments:
[1] = test system: EFO-27 human ovarian cancer cells (LHRH binding sites); test: Direct binding/uptake of 177Lu-labeled LHRH-II analogs to EFO-27 cells; conditions: 177Lu-labeled analog, single concentration
Description: All reagents and chemicals were obtained from Sigma unless otherwise specified. LHRH analogs and ^177Lu-LHRH-II analogs were prepared by in-house chemists, as described elsewhere in the application. ^177Lu-LHRH-II analogs were not HPLC purified, as they had been prepared using formulation conditions that yielded high RCP without the need for purification. […] The HPLC-purified material was taken in a stabilizing buffer containing 5% lactose, 0.1% L-cysteine hydrochloride and 800 KIU/mL aprotinin and received as a lyophilized product and stored at −70° C. This was reconstituted in distilled water, aliquoted and stored at −70° C. The radioactivity was determined using Microplate Scintillation counter (Wallac Microbeta Trilux).
For the binding assay, EFO-27 cells were seeded onto 96-well clear flat-bottom tissue-culture-treated plates at 15,000/well density in the growth medium and used for assay on day 2 post-seeding. Cells were routinely checked for confluence and contamination and cell count was done occasionally to ensure consistency in cell numbers.
Direct Binding: Direct binding studies were carried out by incubating appropriate ^177Lu-labeled compounds with EFO-27 cells at 4° C. for 1 h followed by washing off the unbound radioactivity. Non-specific binding was determined by incubating the ^177Lu-LHRH-II analogs in the presence of a large excess (30 uM) of cold (unlabeled) LHRH-II analogs. A 96-well plate format was used.

[2] = test system: LHRH binding sites on human ovarian cancer cells (EFO-27);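 further: Cell-associated radioactivity on confluent EFO-27 monolayers in 96-well plates, measured by microplate scintillation counting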
[3] = molecular target: LHRH receptor (LHRH binding sites) on EFO-27 human ovarian cancer cells (human); test: direct binding of 177Lu-labeled peptide to EFO-27 cells, single concentration
[4] = Table 13: linker between AA1 and DO3A10CM, EFO-27 cells
[5] = read-out: 125I-LHRH II Competition EC50, Table 24, unlabeled analogs, EFO-27 cells

Row | Molecule | 177Lu-LHRH II Direct binding % Bound [1] [%] | EC50 [2, 5] [nM] | % Bound [3] [%] | other results
1 | CN(CC(=O)N[C@@H](Cc1c[nH]cn1)C(=O)N[C@@H](Cc1c[nH]c2ccccc12)C(=O)N[C@@H](CO)C(=O)N[C@@H](Cc1c[nH]cn1)C(=O)N[C@H](CCCNC(=N)N)C(=O)N[C@@H](Cc1c[nH]c2ccccc12)C(=O)N[C@@H](Cc1ccc(C(=O)c2ccccc2)cc1)C(=O)N1CCC[C@H]1C(=O)NNC(N)=O)C(=O)CN1CCN(CC(=O)O)CCN(CC(=O)O)CCN(CC(=O)O)CC1 [compound 2443] | 1.8 | 950 | – | EC50 ([2]; Table 11: modification of amino acid at position 5, EFO-27 cells): 950 nM; EC50 [2, 4]: 950 nM
2 | 2812 (DO3A10CM-[d2Nal][Afe4]WSH[dR]W[Bpa]P[azaGly]-NH2; not fully specified; printed as X-Dnal2-Afe4-Trp-Ser-His-Darg-Trp-Bpa4-Pro-azaG-NH2; reading uncertain) [compound 2812] | 5.80 | 3690 | – | –
3 | 2642 (DO3A10CM-G[d2Nal][Dcfe4][d3Pal]S[Metyr][dK](Nicotinoyl)LK(iPr)[Hyp][dA]-NH2; reading uncertain) [compound 2642] | 0.105 | > 10000 | – | –
4 | 2742 (XHWSHXWXPX; N-methyl) [compound 2742] | 0.125 | > 10000 | – | –
5 | N=C(N)NCCC[C@H](NC(=O)[C@@H](Cc1ccc2ccccc2c1)NC(=O)CN1CCN(CC(=O)O)CCN(CC(=O)O)CCN(CC(=O)O)CC1)C(=O)N[C@@H](Cc1c[nH]c2ccccc12)C(=O)N[C@@H](CO)C(=O)N[C@@H](Cc1c[nH]cn1)C(=O)N[C@H](CCCNC(=N)N)C(=O)N[C@@H](Cc1c[nH]c2ccccc12)C(=O)N[C@@H](Cc1ccc(C(=O)c2ccccc2)cc1)C(=O)N1CCC[C@H]1C(=O)NNC(N)=O [compound 2813] | 18.80 | 300 | – | –
6 | 2741 (DO3A10CM-[Sar][His(1-Me)]WSH[dR]W[Bpa]P[azaGly]-NH2; reading uncertain) [compound 2741] | 1.35 | 2990 | – | –
7 | N=C(N)NCCC[C@@H](NC(=O)[C@H](Cc1c[nH]cn1)NC(=O)[C@H](CO)NC(=O)[C@H](Cc1c[nH]c2ccccc12)NC(=O)[C@H](Cc1c[nH]cn1)NC(=O)[C@@H](Cc1ccc2ccccc2c1)NC(=O)CN1CCN(CC(=O)O)CCN(CC(=O)O)CCN(CC(=O)O)CC1)C(=O)N[C@@H](Cc1c[nH]c2ccccc12)C(=O)N[C@@H](Cc1ccc(C(=O)c2ccccc2)cc1)C(=O)N1CCC[C@H]1C(=O)NNC(N)=O [compound 2666] | 13.25 | – | – | –
8 | 2624 (XHWSHXWXPX; N-methyl) [compound 2624] | 4.03 | 2010 | – | –
9 | 2738 (XFWSHXWXPX; N-methyl) [compound 2738] | 1.41 | – | – | –
10 | 2613 (DO3A10CM-G[Sar][Dcfe4][d1Nal]S[Metyr][dK](Nicotinoyl)LK(iPr)P[dA]-NH2; reading uncertain) [compound 2613] | 0.17 | > 10000 | – | –
11 | 2823 (XHWSHXWXPX; not fully specified; N-methyl) [compound 2823] | 1.00 | 1610 | – | –
12 | N=C(N)NCCC[C@@H](NC(=O)[C@H](Cc1c[nH]cn1)NC(=O)[C@H](CO)NC(=O)[C@H](Cc1c[nH]c2ccccc12)NC(=O)[C@H](Cc1c[nH]cn1)NC(=O)CN(Cc1ccccc1)C(=O)CNC(=O)CN1CCN(CC(=O)O)CCN(CC(=O)O)CCN(CC(=O)O)CC1)C(=O)N[C@@H](Cc1c[nH]c2ccccc12)C(=O)N[C@@H](Cc1ccc(C(=O)c2ccccc2)cc1)C(=O)N1CCC[C@H]1C(=O)NNC(N)=O [compound 2792] | 1.28 | 1800 | – | EC50 ([2]; Table 8: N-substituted amino acid at position 1 and Gly as linker, in vitro binding on EFO-27 cells): 2270 nM; EC50 [2, 4]: 650 nM
13 | 2896 (XHWSHXWXPX; not fully specified; N-methyl) [compound 2896] | 0.70 | 3200 | – | –
14 | 2722 (XHWSHXWXPX; not fully specified; N-methyl) [compound 2722] | 0.36 | 4620 | – | –
15 | 2756 (DO3A10CM-[Sar][Amfe4]WSH[dR]W[Bpa4]P[azaGly]-NH2; reading uncertain) [compound 2756] | 5.17 | 280 | – | –
16 | 2766 (DO3A10CM-G[d1Nal]HWSH[dR]W[Bpa]P[azaGly]-NH2; reading uncertain) [compound 2766] | 10.29 | 620 | – | –
17 | 2721 (XHWSHXWXPX; not fully specified; N-methyl) [compound 2721] | 0.79 | 4550 | – | –
18 | 2725 (XHWSHXWXPX; not fully specified; N-methyl) [compound 2725] | 0.41 | 2260 | – | –
19 | 2440 (DO3A10CM-[Sar]HWSH[dR]WYP[azaGly]-NH2; reading uncertain) [compound 2440] | 0.21 | > 10000 | – | –

Row | Molecule | 177Lu-LHRH II Direct binding % Bound [1] [%] | EC50 [2, 5] [nM] | % Bound [3] [%] | other results
20 | 2644 (DO3A10CM-G[d2Nal][Dcfe4][d3Pal]SH[dR]WYP[dA]-NH2; reading uncertain) [compound 2644] | 2.13 | 2910 | – | –
21 | B1 | – | – | 0.79 | –
22 | B2 | – | – | 0.7 | –
23 | B3 | – | – | 0.125 | –
24 | B4 | – | – | 5.8 | –
25 | B5 | – | – | 0.94 | –
26 | B6 | – | – | 1.06 | –
27 | B7 | – | – | 0.36 | –
28 | B8 | – | – | 1.35 | –
29 | B9 | – | – | 10.3 | –
30 | B10 | – | – | 1 | –
31 | B11 | – | – | 2.4 | –
32 | B12 | – | – | 1.41 | –
33 | B13 | – | – | 9.2 | –
34 | B14 | – | – | 1.62 | –
35 | B15 | – | – | 1.28 | –
36 | B16 | – | – | 0.41 | –
37 | B17 | – | – | 3.4 | –
